The numbers were not newly measured in patent US20260216071A1, “NANOPARTICULATE FORMULATION” (NEWIMMUNE II, LLC, priority 2022, published 2026), which cites them from elsewhere.

Molecules are shown by their SMILES.

In the case of `CCCCc1nc(Cl)c(CO)n1Cc1ccc(-c2ccccc2-c2nn[nH]n2)cc1` [Losartan, (2-butyl-4-chloro-1-{[2′-(1H-tetrazol-5-yl)biphenyl-4-yl]methyl}-1H-imidazol-5-yl) methanol], the “absorption following oral administration” value is on record as “well absorbed”.
